≈ marks a conversion by molar mass, not a printed value. Like-named read-outs stand apart in the source and are kept apart here.
Tests used:
[1] = tested on: P. aeruginosa PAO1 biofilm; assay: In vitro biofilm formation inhibition, crystal violet, 96-well plate; assay type: cell-based; conditions: Pseudomonas aeruginosa; P. aeruginosa PAO1, 24 h exposure, LB broth with 0.2% glucose; read-out: biofilm preventive concentration (BPC50)
Protocol: The effect of azithromycin and clindamycin on P. aeruginosa biofilm formation was assessed as described previously ([Sharma et al., 2009]; [Barman et al., 2016]; [Kumar et al., 2019]). Briefly, the overnight-grown culture of P. aeruginosa PAO1 in TSB was pelleted and resuspended in Luria-Bertani broth containing 0.2% glucose (10^7 CFU/ml). The bacterial suspension was spiked with different concentrations (16-0.015 μg/ml) of azithromycin or clindamycin in 96-well plates and incubated at 26 ± 2°C. The effects of azithromycin and clindamycin on inhibition of biofilm formation were assayed after 24 h of exposure. The wells were emptied and washed three times with phosphate-buffered saline (PBS; pH 7.3), and the adherent biofilm was stained with 200 μl of 1% crystal violet for 30 min and rinsed with distilled water. The adherent biofilm in the wells was solubilized with 200 μl of 30% acetic acid, and the optical density at 600 nm (OD600) was measured to quantify the formed biofilms. Each experiment was performed thrice, and the mean percent inhibition and standard deviations were calculated. The relative inhibition of biofilms, expressed as a mean percentage, was determined using the following formula: Percentinhibition=100-{([…]-controlwell)×100}

[2] = Pharmacokinetics in plasma and lung ELF of P. aeruginosa-infected rats; conditions: rat, in vivo, po, 75 mg/kg; for Kp: Sprague-Dawley, 75 mg/kg PO, infected rats
Protocol: The concentrations of azithromycin were assessed in the plasma and lung epithelial lining fluid (ELF) of the rats infected with P. aeruginosa PA-14. Intratracheal infection in rats was performed as described above. A single dose of 75 mg/kg of azithromycin was administered orally through gavage. Blood and broncho-alveolar lavage (BAL) fluid (with 2 ml of normal saline wash) were collected at different time-points up to 24 h post-dose from each animal by gross dissection. For the collection of BAL, 2 ml of sterile cold PBS was infused into the animal through the trachea and into the bronchial cavity and aspirated out. Plasma was harvested from blood samples by centrifugation. The azithromycin concentrations in plasma and BAL samples were determined using liquid chromatography with tandem mass spectrometry. The apparent volume of ELF (VELF) in BAL fluid was determined by the urea dilution method using the urea assay kit from BioChain (Hayward, CA). The concentration of azithromycin in ELF (CELF) was determined as
where CBAL is the measured concentration of azithromycin in BAL fluid.

[3] = tested on: P. aeruginosa PA-14 biofilm; assay: Solid-surface biofilm formation on catheter piece (CFU, SEM); assay type: cell-based, Pseudomonas aeruginosa; conditions: P. aeruginosa PA-14, 24 h, azithromycin 2 or 16 μg/ml
Protocol: (§1) To further evaluate the effect of azithromycin on planktonic cells and biofilm formation, a time-kill kinetic study was performed. Briefly, 10 ml of LB broth containing 0.2% glucose and a sterile 2-cm-long piece of the catheter were pre-warmed at 26 ± 2°C in reaction tubes, and the different concentrations of azithromycin (2 or 16 μg/ml) were added to tubes. The bacterial inoculum of P. aeruginosa PA-14 was prepared as described above and added to the tubes to achieve a final inoculum of ∼1 × 10^5 CFU/ml. The tubes were incubated at 26 ± 2°C. The planktonic cell counts were determined at various time-points by serial dilution plating onto a trypticase soy agar plate. After 24 h of incubation, the catheter pieces from each tube were removed, non-adherent bacteria were washed from the catheter pieces, and the number of CFU embedded in biofilm per catheter was determined as described earlier ([Kumar et al., 2016], [2019]). The experiment was performed in triplicate, and the mean log10 killing of planktonic cells and biofilm inhibition were calculated for each concentration. To further assess biofilm formation in the absence (drug-free control) or presence of azithromycin, the catheter pieces were also sectioned and processed for scanning electron microscopy (SEM).

[4] = tested on: pelA promoter-lacZ in recombinant P. aeruginosa G2; assay: β-galactosidase activity of pel promoter-lacZ transcriptional fusion; assay type: cell-based, Pseudomonas aeruginosa
Protocol: To understand the molecular mechanism of biofilm inhibition, a recombinant mutant P. aeruginosa G2-containing promoterless lacZ gene under promoter control of pelA was gifted to us by Prof. Kilter ([Sakuragi and Kolter, 2007]). The β-galactosidase activity was performed in the absence and presence of different concentrations of azithromycin and levofloxacin, as described earlier ([Sakuragi and Kolter, 2007]).

[5] = tested on: pre-formed biofilm of P. aeruginosa PAO1; assay: Activity on pre-formed biofilm (eradication), crystal violet; assay type: cell-based; conditions: Pseudomonas aeruginosa; pre-formed 24 h biofilm of P. aeruginosa PAO1, 24 h exposure; read-out: minimum biofilm eradication concentration (MBEC50)
Protocol: The efficacy of azithromycin was also evaluated on a pre-formed biofilm of P. aeruginosa PAO1 to assess the therapeutic or eradicative effect of azithromycin as described earlier ([Macia et al., 2014]). The bacterial suspension was prepared as described above and inoculated at 200 μl/well in a 96-well plate. After 24 h of incubation, the wells were emptied and washed with PBS and then spiked with different concentrations (16–0.015 μg/ml) of azithromycin prepared in LB broth containing 0.2% glucose. The plate was further incubated for 24 h, and the effect of azithromycin was assessed as described above.

[6] = tested on: QS molecule (3-O-C12 HSL) of P. aeruginosa; assay: QS molecule in epithelial lining fluid of infected rats; assay type: in vivo; conditions: azithromycin treated rats vs placebo control, 7 days post-infection
[7] = tested on: P. aeruginosa G2; assay: MIC; assay type: cell-based; conditions: Pseudomonas aeruginosa
[8] = tested on: P. aeruginosa PA-14; assay: Chronic rat lung (biofilm) infection model, lung bacterial load; assay type: in vivo, Sprague-Dawley rats; conditions: 75 mg/kg PO, q24h for 4 days, started 3 days post-infection; lungs 22 h after last dose
Description: Specific pathogen-free female Sprague–Dawley (SD) rats, weighing 200 ± 20 g (age 8 weeks), were used for the study. The rats were procured from Vivo Biotech Pvt. Ltd., Hyderabad, India. The animals were housed in a pathogen-free animal facility and allowed 5 days of acclimatization in the study room before initiating the experiment. Feed and water were provided ad libitum during acclimatization and the study periods. All animal studies were approved by the institutional animal ethics committee. The animal studies were conducted under the strict guidelines of the committee for the Purpose of Control and Supervision of Experiments on Animals, Ministry of Environment, Forests and Climate Change, New Delhi, Government of India, and under the supervision of the institutional committee.
To determine the in vivo efficacy of azithromycin, a chronic biofilm model of P. aeruginosa was established in SD rats, which mimic the human chronic infection ([Hoover et al., 2017]; [Chawanpaiboon et al., 2019]). A semisolid 0.25% w/v agar beads suspension was prepared and autoclaved a day before the in vivo experiment and stored overnight at 4°C. […] The rats were then euthanized 22 h after the last dose, and the lungs’ bacterial load was determined by plating diluted lung homogenates on MHA.

[9] = tested on: P. aeruginosa PA-14 planktonic cells; assay: Time-kill kinetic study, planktonic cells; assay type: cell-based, Pseudomonas aeruginosa; conditions: P. aeruginosa PA-14, LB media
Protocol: as §1

Structure (SMILES) | IC50 [1] [µg/mL] | Kp ([2]; read-out: lung ELF/plasma ratio of AUCinf) | Kp ([2]; read-out: lung ELF/plasma ratio of Cmax) | Cmax [2] [ng/mL] | Tmax [2] [h] | solid-surface biofilm formation on catheter pieces [3] | IC50 ([4]; Pseudomonas aeruginosa, read-out: inhibition of β-galactosidase activity, IC50) [µg/mL] | IC50 [5] [µg/mL] | level of QS molecules in the ELF [6] | MIC [7] [µg/mL] | reduction in bacterial counts as compared to the placebo control [8] [log10] | reduction in planktonic cell counts as compared to the drug-free control ([9]; 6 h) [log10] | effect on planktonic cell counts ([9]; 24 h post-incubation) | effect on β-galactosidase activity ([4]; P. aeruginosa G2, sub-MIC concentrations)
CC[C@H]1OC(=O)[C@H](C)[C@@H](O[C@H]2C[C@@](C)(OC)[C@@H](O)[C@H](C)O2)[C@H](C)[C@@H](O[C@@H]2O[C@H](C)C[C@H](N(C)C)[C@H]2O)[C@](C)(O)C[C@@H](C)CN(C)[C@H](C)[C@@H](O)[C@]1(C)O [azithromycin] | 0.122 (≈ 0.163 µM) | 86 | 81 | 950 ± 300 | 2 | no solid-surface biofilm formed | 0.17 (≈ 0.227 µM) | 7.49 (≈ 10 µM) | comparatively reduced level | > 0.032 | 1.67 | 1.86 | no effect | –
C[C@H]1COc2c(N3CCN(C)CC3)c(F)cc3c(=O)c(C(=O)O)cn1c23 [levofloxacin] | – | – | – | – | – | – | – | – | – | 0.001 (≈ 0.00277 µM) | – | – | – | did not influence

Reference: publication PMC8102702, “Azithromycin Exhibits Activity Against Pseudomonas aeruginosa in Chronic Rat Lung Infection Model” (Frontiers in Microbiology, 2021)
